Blank lines part the entries; values can stand above or below the compound they belong to.
Experiments:
Type in all cases: physicochemical
[1] = PTX release from hydrogel in vitro; conditions: hydrogel 20 mg/mL TSP-5, 2 mg/mL PTX, 0.6 mg/mL AM, PBS pH 7.4, 37 °C, 120 rpm, 7 days, HPLC, n = 3
Description: Gel sample (100 μL; 20 mg/mL TSP-5, 2 mg/mL PTX, 0.6 mg/mL AM) was prepared at 37 °C in a 1.5 mL EP tube. PBS (pH 7.4) was used to carefully wash the surface of the sample, and the cleaning solution was collected. The content of PTX not encapsulated was then determined by HPLC, and the encapsulation rate was calculated according to the formula: Encapsulation rate (%) = (PTX total –PTX in cleaning solution )/PTX total × 100%.
1 mL PBS (pH 7.4) was added as release medium, and the EP tube was placed in a thermostatic oscillator (120 rpm, 37 °C). All the release solution were carefully collected at different time points (0.5, 2, 4, 8, 12, 24, 48, 72, 96, 120, 144 and168 h), and the same volume of fresh release media was added. For the laser group, samples were irradiated (808 nm, 1 W/cm^2, 5 min) before each sampling. PTX release was quantified by HPLC.

[2] = Temperature study: gelation of TSP-5, vial inversion; conditions: for Gelation state: TSP-5 aqueous solution 20 mg/mL
Description: (§1) The gelation behavior of TSP-5 was evaluated at various concentrations, temperatures, and AM concentrations. Gel formation was assessed via vial inversion.
(§2) Temperature study: Aqueous solutions of TSP-5 (20 mg/mL) were prepared and then placed in water bath at 30 °C, 37 °C, 40 °C, 45 °C, 50 °C and 55 °C respectively to observe the gelatinization.

[3] = AM concentration study: gelation time of TSP-5 loaded with AM; conditions: TSP-5 20 mg/mL
Description: as §1
AM concentration study: Aqueous solutions of TSP-5 (20 mg/mL) was prepared at 25 °C and AM suspension of different concentrations (0.2, 0.4, 0.6, 0.8 and 1.0 mg/mL) was added. The sample was then placed in a water bath at 37 °C and 45 °C respectively to observe the gelatinization.

[4] = Concentration study: solubility of TSP-5 in water; conditions: for Solubility of TSP-5: aqueous solution, pH 7.4, 25 °C
Description: Concentration study: At room temperature (25 °C), aqueous solutions of TSP-5 was prepared at concentrations of 15 mg/mL, 20 mg/mL, 25 mg/mL and 30 mg/mL, respectively, and adjusted to pH 7.4 with NaOH (0.5 M) and HCl (0.1 M). Gel formation was assessed via vial inversion.

[5] = Temperature study: gelation of TSP-5, vial inversion; set-up: key: L: liquid; VL: viscous liquid; SG: stable gel; UG: unstable gel; conditions: TSP-5 20 mg/mL, water bath 40 °C
Description: as §1, §2

[6] = DLS particle size of TSP-5 hydrogel at different temperatures
[7] = Temperature study: gelation of TSP-5, vial inversion; set-up: key: L: liquid; IS: insoluble; SS: slightly soluble; conditions: TSP-5 20 mg/mL, water bath 30 °C
Description: as §1, §2

[8] = TSP-5 20 mg/mL, water bath 37 °C

Cumulative release of PTX from the hydrogel ([1]; with laser (808 nm, 1 W/cm^2, 5 min before each sampling)): 61.83% | Cumulative release of PTX from the hydrogel ([1]; without laser): 42.81%
Compound: CC(=O)O[C@H]1C(=O)[C@@]2(C)[C@H]([C@H](OC(=O)c3ccccc3)[C@]3(O)C[C@H](OC(=O)[C@H](O)[C@@H](NC(=O)c4ccccc4)c4ccccc4)C(C)=C1C3(C)C)[C@]1(OC(C)=O)CO[C@@H]1C[C@@H]2O [PTX, Paclitaxel]

Gelation: time given for SG (stable gel) [2, 8]: 32 min | Gelation: time given for VL (viscous liquid) [2, 8]: 10 min | Gelation state ([2]; pH 7.4, 37 °C): stable hydrogel | Gelation state ([2]; pH 7.4, 45 °C): completely viscous liquid | Gelation time: SG (stable gel) ([3]; AM 0.2 mg/mL, 37 °C): 40 min | Gelation time: VL (viscous liquid) ([3]; AM 0.2 mg/mL, 37 °C): 15 min | Gelation time: UG (unstable gel) ([3]; AM 0.2 mg/mL, 45 °C): 39 min | Gelation time: VL (viscous liquid) ([3]; AM 0.2 mg/mL, 45 °C): 3 min | Gelation time: SG (stable gel) ([3]; AM 0.4 mg/mL, 37 °C): 33 min | Gelation time: VL (viscous liquid) ([3]; AM 0.4 mg/mL, 37 °C): 14 min | Gelation time: UG (unstable gel) ([3]; AM 0.4 mg/mL, 45 °C): 33 min | Gelation time: VL (viscous liquid) ([3]; AM 0.4 mg/mL, 45 °C): 4 min | Gelation time: SG (stable gel) ([3]; AM 0.6 mg/mL, 37 °C): 30 min | Gelation time: VL (viscous liquid) ([3]; AM 0.6 mg/mL, 37 °C): 10 min | Gelation time: UG (unstable gel) ([3]; AM 0.6 mg/mL, 45 °C): 30 min | Gelation time: VL (viscous liquid) ([3]; AM 0.6 mg/mL, 45 °C): 2 min | Gelation time: SG (stable gel) ([3]; AM 0.8 mg/mL, 37 °C): 30 min | Gelation time: VL (viscous liquid) ([3]; AM 0.8 mg/mL, 37 °C): 9 min | Gelation time: UG (unstable gel) ([3]; AM 0.8 mg/mL, 45 °C): 30 min | Gelation time: VL (viscous liquid) ([3]; AM 0.8 mg/mL, 45 °C): 2 min | Solubility of TSP-5 ([4]; peptide 15 mg/mL): L (liquid) | Solubility of TSP-5 ([4]; peptide 20 mg/mL): L (liquid) | Solubility of TSP-5 ([4]; peptide 25 mg/mL): SS (slightly soluble) | Solubility of TSP-5 ([4]; peptide 30 mg/mL): IS (insoluble) | Hydrogel formation ([4]; pH 7.4, 15–30 mg/mL, 25 °C, vial inversion): no hydrogel formation was observed | Gelation state [5]: SG | Hydrodynamic size (DLS) ([6]; 37 °C): ~1,300 nm | Hydrodynamic size (DLS) ([6]; 45 °C): ~350 nm | Gelation state [7]: L
Compound: Ac-DDIIIVPGVGK-NH2 [TSP-5, Ac-DDIII-VPGVG-K-NH2]

From publication PMC12549564, “A thermo-sensitive peptide hydrogel loaded with paclitaxel and antimony nanosheets for synergistic photothermal-chemotherapeutic treatment of breast cancer” (Frontiers in Pharmacology, 2025)
